Experimental data published in paper PMC5777755, “Functional characterization of a unique cytochrome P450 in Toxoplasma gondii” (Oncotarget, 2017).

Target: T1, Tg-P450 (Toxoplasma gondii, UniProt S8EQL7)
T1 construct: gene TGME49_315770; P450 knockout as negative control
Assay: in situ fluorescence microscopy of resorufin formation (rhodamine filter), knockout control
Type: cell-based
Conditions: 1 uM, 24 h, 37 °C; live tachyzoites in HepG2 cells; strain given as Tg-P450 OE in text, GT1 in figure legend

T1 sequence (S8EQL7 entry or part of it): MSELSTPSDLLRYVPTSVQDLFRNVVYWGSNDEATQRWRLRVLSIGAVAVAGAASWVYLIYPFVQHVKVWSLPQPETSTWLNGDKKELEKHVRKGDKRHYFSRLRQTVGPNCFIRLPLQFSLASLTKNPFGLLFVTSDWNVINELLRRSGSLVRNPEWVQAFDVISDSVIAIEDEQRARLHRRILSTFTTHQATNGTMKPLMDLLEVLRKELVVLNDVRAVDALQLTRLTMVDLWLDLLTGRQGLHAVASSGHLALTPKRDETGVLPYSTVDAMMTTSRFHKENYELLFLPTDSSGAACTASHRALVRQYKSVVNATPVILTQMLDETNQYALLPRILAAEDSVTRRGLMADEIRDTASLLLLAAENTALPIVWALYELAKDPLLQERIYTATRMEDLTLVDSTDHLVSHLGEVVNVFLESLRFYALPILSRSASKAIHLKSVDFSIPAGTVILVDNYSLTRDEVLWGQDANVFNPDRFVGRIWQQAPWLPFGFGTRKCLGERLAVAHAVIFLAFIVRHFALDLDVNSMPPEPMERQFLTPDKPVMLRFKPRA

Row | Structure (SMILES) | in situ fluorescence microscopy of resorufin formation (rhodamine filter), knock
1 | CCCCCOc1ccc2nc3ccc(=O)cc-3oc2c1 [PR, pentoxyresorufin] | a weak specific fluorescence signal was visible in the Tg-P450 OE strain
2 | O=c1ccc2nc3ccc(OCc4ccccc4)cc3oc-2c1 [BR, benzoxyresorufin] | After treating the P450 knockout parasites with PR and BR, no fluorescence was observed
